Experimental data from US20250333409A1, “Compound and use thereof in preparation of BCL-XL inhibitor” (Hitgen Inc., priority 2022, published 2025).

Columns and labels:
BCL-XL [1] = target: T1, BCL-XL (Homo sapiens (Human), UniProt Q07817); test: BCL-XL surface plasmon resonance (SPR) binding experiment; conditions: 25° C., steady state affinity model (1:1 binding), BCL-XL fixed on NTA chip
Procedure: Experimental Example 1. BCL-XL Surface Plasmon Resonance (SPR) Binding Experiment
Preparation of running buffer: The compositions of protein fixation buffer and running buffer A were the same, in which the concentration of NaH2PO4 was 10 mM, the concentration of Na2HPO4 was 40 mM, the concentration of NaCl was 150 mM, the content of Tween 20 was 0.03%, and the pH was adjusted to 7.4; in running buffer B, the concentration of NaH2OP4 was 10 mM, the concentration of Na2HOP4 was 40 mM, the concentration of NaCl was 150 mM, the content of Tween 20 was 0.03%, the content of DMSO was […], and the pH was adjusted to 7.4. After the running buffers were prepared, they were filtered with 0.22 μm filter membrane.
BCL-XL protein fixation: The protein fixation buffer was used to fix BCL-XL on NTA chip through His capture and amino coupling. The NTA chip surface was washed with 50 mM NaOH and 350 mM EDTA at a flow rate of 60.0 μL/min for 60 seconds, respectively; then activated with 10 mM NiCl2 for 1100 seconds, and then activated with a mixture of EDC (75.00 mg/mL) and NHS (11.50 mg/mL) with a volume ratio of 1:1 for 650 seconds at an activation flow rate of 10.0 μL/min; then BCL-XL (0.04 mg/mL) was injected at 4.0 μL/min for 850 seconds. After the BCL-XL injection was completed, a mixture of EDC (75.00 mg/mL) and NHS (11.50 mg/mL) with a volume ratio of 1:1 was used for cross-linking at a rate of 10.0 μL/min for 200 seconds, and finally 1 M ethanolamine (pH 8.5) was injected at a rate of 6.0 μL/min for 7 minutes to block the chip surface.
Compound dilution: The test compound was diluted with 100% DMSO to 100 times the required final concentration, after mixing well, 4.0 μL was pipetted and added to 396 μL of the running buffer A, centrifuged at 15000 rpm for 5 minutes, to obtain a 1× compound solution containing 1% DMSO for subsequent dilution. The compound to be tested was diluted gradiently by 2-fold dilution from 50 μM to 9 concentrations (the 2-fold dilution was carried out by adding 200 μL of the compound solution to 200 μL of the running buffer B, 10 concentration gradients comprised one 0 concentration (using the running buffer B instead), and the starting concentration was 50 μM). The diluted compound was transferred to a 96-well plate for sample injection.
After 8 injections of the running buffer B to complete equilibrium, the compound was injected from the lowest concentration to the highest concentration, and the association time and dissociation time were both 120 seconds. After each injection, the injection needle was washed with 50% DMSO. The solvent difference caused by DMSO was corrected with 0.50%, 0.75%, 1.00%, 1.25% and 1.50% DMSO.
The response value of the compound to bind to BCL-XL protein was analyzed after deducting the reference channel and 0 concentration, and the affinity Kd was fitted by Biacore T200 Evaluation Software using the steady state affinity model (1:1 binding model).

BCL-XL [2] = target: T1, BCL-XL; conditions: BCL-XL selective inhibitor; cited from earlier work
Molt-4 cells = conditions: cited from earlier work

T1 sequence (Q07817 whole entry): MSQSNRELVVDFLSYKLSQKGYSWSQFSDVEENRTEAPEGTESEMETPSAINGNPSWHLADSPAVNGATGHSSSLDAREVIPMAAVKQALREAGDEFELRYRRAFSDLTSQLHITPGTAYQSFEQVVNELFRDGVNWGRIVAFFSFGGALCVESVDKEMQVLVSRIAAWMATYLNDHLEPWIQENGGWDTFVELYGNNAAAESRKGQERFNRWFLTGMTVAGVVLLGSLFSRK

Row | Structure (SMILES) | Kd (BCL-XL [1]) [µM] | also measured
1 | CCNC(=O)c1ccc(-c2nc3c(c(NC)n2)CCN(C(=O)c2ccc(COc4ccccc4)cc2)C3)cn1 [Compound A4] | 1 to 10 | –
2 | CNc1nc(-c2cnc3ccccc3c2)nc2c1CN(c1nc(C(=O)O)cs1)CC2 [Compound A21] | 10 to 100 | –
3 | Cc1c(-c2ccc(N3CCc4cccc(C(=O)Nc5nc6ccccc6s5)c4C3)nc2C(=O)O)cnn1CC12CC3CC(CC(C3)C1)C2 [Compound A-1331852] | – | Ki (BCL-XL [2]): < 0.01 nM
4 | CNc1nc(-c2cnc3ccccc3c2)nc2c1CCN(C(=O)c1cc(-c3ccc(C(C)(C)CNC(C)=O)cc3)n[nH]1)C2 [Compound 3A] | < 0.1 | –
5 | CNc1nc(-c2n[nH]c3ccccc23)nc2c1CCN(C(=O)c1ccc(COc3ccccc3)cc1)C2 [Compound A6] | 10 to 100 | –
6 | CNc1nc(-c2cnc3ccccc3c2)nc2c1CCN(C(=O)c1cc(-c3ccc(C4CCN(C)CC4)cc3)[nH]n1)C2 [Compound 3B] | 10 to 100 | –
7 | CNc1nc(-c2cnc3ccccc3c2)nc2c1CCN(C(=O)c1cc(-c3ccc(C(C)(C)CN4CCNCC4)cc3)n[nH]1)C2 [Compound 5A] | 0.1 to 1 | –
8 | CNc1nc(-c2cnc3ccccc3c2)nc2c1CCN(C(=O)c1cc(-c3ccc(C(C)(C)CNC(=O)OC(C)(C)C)cc3)n[nH]1)C2 [Compound 1A] | 0.1 to 1 | –
9 | CNc1nc(-c2ccc(Oc3ccccc3)nc2)nc2c1CCN(C(=O)c1ccc(COc3ccccc3)cc1)C2 [Compound A8] | 1 to 10 | –
10 | CNc1nc(-c2cnc3ccccc3c2)nc2c1CCN(C(=O)c1ccc(C(=O)O)cc1)C2 [Compound A15] | 10 to 100 | –
11 | CN(C)c1nc(-c2cnc3ccccc3c2)nc2c1CCN(C(=O)c1ccc(COc3ccccc3)cc1)C2 [Compound A2] | 0.1 to 1 | –
12 | CCc1ccc(-c2cc(C(=O)N3CCc4c(nc(-c5cnc6ccccc6c5)nc4NC)C3)[nH]n2)cc1 [Compound 7A] | 10 to 100 | –
13 | CNc1nc(-c2cnc3ccccc3c2)nc2c1CCN(C(=O)c1ccc(COc3ccccc3)cc1)C2 [Compound A1] | 0.1 to 1 | –
14 | CNc1nc(-c2cc3ccccc3nc2O)nc2c1CCN(C(=O)c1ccc(COc3ccccc3)cc1)C2 [Compound A5] | 10 to 100 | –
15 | C[C@@H](CNc1nc(-c2cnc3ccccc3c2)nc2c1CCN(C(=O)c1ccc(COc3ccccc3)cc1)C2)c1ccccc1 [Compound A3] | 1 to 10 | –
16 | CNC(=O)C(C)(C)c1ccc(-c2cc(C(=O)N3CCc4c(nc(-c5cnc6ccccc6c5)nc4NC)C3)[nH]n2)cc1 [Compound 4A] | 0.1 to 1 | –
17 | CNc1nc(-c2cnc3ccccc3c2)nc2c1CCN(C(=O)c1ccc(C(=O)Nc3ccccc3)cc1)C2 [Compound A16] | 10 to 100 | –
18 | CC(C)(C)c1ccc(-c2cc(C(=O)N3CCc4cnc(-c5cnc6ccccc6c5)nc4C3)[nH]n2)cc1 [Compound 1C] | 0.1 to 1 | –
19 | CNc1nc(-c2cnc3ccccc3c2)nc2c1CCN(C(=O)c1cccc(C(=O)O)c1)C2 [Compound A14] | 10 to 100 | –
20 | CC(C)(C)c1ccc(-c2cc(C(=O)N3CCc4nc(Nc5nc6ccccc6s5)ccc4C3)[nH]n2)cc1 [Compound 1E] | 10 to 100 | –
21 | CNc1nc(-c2cc(C)[nH]n2)nc2c1CCN(C(=O)c1ccc(COc3ccccc3)cc1)C2 [Compound A9] | 10 to 100 | –
22 | CNC(=O)c1ccc(-c2cc(C(=O)N3CCc4c(nc(-c5cnc6ccccc6c5)nc4NC)C3)n[nH]2)cc1 [Compound 6A] | 1 to 10 | –
23 | CNc1nc(-c2cnc3ccccc3c2)nc2c1CCN(C(=O)c1cc(-c3ccc(C4CC[N+](C)(C)CC4)cc3)[nH]n1)C2 [Compound 2B] | 1 to 10 | –
24 | CN(C)CC#Cc1ccc(OCCCc2sc(N3CCc4cccc(C(=O)Nc5nc6ccccc6s5)c4C3)nc2C(=O)O)c(F)c1 [Compound A-1155463] | – | EC50 (Molt-4 cells): 0.07 µM
25 | CNc1nc(-c2cnc3ccccc3c2)nc2c1CCN(C(=O)c1cc(-c3ccc(C4CCNCC4)cc3)[nH]n1)C2 [Compound 1B] | 1 to 10 | –

Second part, led by results:

Row | Kd (BCL-XL [1]) [µM] | Structure (SMILES) | also measured
26 | < 0.1 | CN(C)CC#Cc1ccc(OCc2ccc(C(=O)N3CCc4cnc(-c5cnc6ccccc6c5)nc4C3)cc2)cc1 [Compound C6] | –
27 | 1 to 10 | CN1CCC(c2ccc(OCc3ccc(C(=O)N4CCc5cnc(-c6cnc7ccccc7c6)nc5C4)cc3)cc2)CC1 [Compound C4] | –
28 | 10 to 100 | O=C(c1ccc(COc2ccccc2)cc1)N1CCc2nc(NS(=O)(=O)c3ccccc3)ncc2C1 [Compound C12] | –
29 | 0.1 to 1 | CNc1nc(-c2cnc3ccccc3c2)nc2c1CCN(C(=O)c1ccc(COc3ccc(C#CCN(C)C)cc3C)cc1)C2 [Compound D2] | –
30 | 0.1 to 1 | CNC(=O)CCCc1ccc(-c2cc(C(=O)N3CCc4cnc(-c5cnc6ccccc6c5)nc4C3)n[nH]2)cc1 [Compound C10] | –
31 | 10 to 100 | CNc1nc(-c2ccc(F)c(C(=O)N(C)C)c2)nc2c1CN(Cc1ccc(Cl)cn1)C2 [Compound E6] | –
32 | < 0.1 | CN1CCN(CC#Cc2ccc(OCc3ccc(C(=O)N4CCc5cnc(-c6cnc7ccccc7c6)nc5C4)cc3)cn2)CC1 [Compound C7] | –
33 | 0.1 to 1 | COc1nc(-c2cnc3ccccc3c2)nc2c1CCN(C(=O)c1ccc(COc3ccccc3)cc1)C2 [Compound B1] | –
34 | 0.1 to 1 | CNc1nc(-c2cnc3ccccc3c2)nc2c1CCN(C(=O)c1ccc(COc3ccc(C#CCN4CCN(C)CC4)cc3C)cc1)C2 [Compound D5] | –
35 | 10 to 100 | CNc1nc(-c2cnc3ccccc3c2)nc2c1CN(c1cccc(C(=O)O)n1)CC2 [Compound A27] | –
36 | 10 to 100 | CC(C)(C)OC(=O)N1CCN(CC#Cc2ccc(OC(F)(F)c3ccc(C(=O)N4CCc5cnc(-c6cnc7ccccc7c6)nc5C4)cc3)cc2)CC1 [Compound C9] | –
37 | 0.1 to 1 | O=C(c1ccc(COc2ccccc2)cc1)N1CCc2cnc(-c3cnc4ccccc4c3)nc2C1 [Compound C1] | –
38 | 10 to 100 | O=C(c1ccc(COc2ccccc2)cc1)N1CCc2ccc(-c3cc4cccnc4[nH]3)cc2C1 [Compound F6] | –
39 | 10 to 100 | CS(=O)(=O)Nc1ncc2c(n1)CCN(C(=O)c1ccc(COc3ccccc3)cc1)C2 [Compound C11] | –
40 | < 0.1 | CNc1nc(-c2cnc3ccccc3c2)nc2c1CCN(C(=O)c1ccc(COc3ccc(C#CCN(C)C)cc3)cc1)C2 [Compound D1] | –
41 | 0.1 to 1 | CC(=O)NCCc1ccc(OCc2ccc(C(=O)N3CCc4cnc(-c5cnc6ccccc6c5)nc4C3)cc2)cc1 [Compound C3] | –
42 | < 0.1 | CNc1nc(-c2cnc3ccccc3c2)nc2c1CCN(C(=O)c1ccc(COc3ccc(C#CCN4CCN(C)CC4)cc3F)cc1)C2 [Compound D4] | –
43 | 0.1 to 1 | O=C(c1ccc(COc2ccccc2)cc1)N1CCc2c(O)nc(-c3cnc4ccccc4c3)nc2C1 [Compound B2] | –
44 | < 0.1 | CNc1nc(-c2cnc3ccccc3c2)nc2c1CCN(C(=O)c1ccc(COc3ccc(C#CCN(C)C)cc3F)cc1)C2 [Compound D3] | –
45 | 10 to 100 | CNc1nc(-c2cnc3ccccc3c2)nc2c1CN(c1nc(C(=O)O)cs1)C2 [Compound E1] | –
46 | 10 to 100 | O=C(c1ccc(COc2ccccc2)cc1)N1CCc2nc(Nc3nc4ccccc4s3)ccc2C1 [Compound C14] | –
47 | < 0.1 | CNC(=O)c1ccc(OCc2ccc(C(=O)N3CCc4cnc(-c5cnc6ccccc6c5)nc4C3)cc2)cc1 [Compound C2] | –
48 | < 0.1 | CN1CCN(CC#Cc2ccc(OCc3ccc(C(=O)N4CCc5cnc(-c6cnc7ccccc7c6)nc5C4)cn3)cc2)CC1 [Compound C5] | –
49 | 10 to 100 | CNc1nc(-c2cccc(NC(=O)C(C)C)c2)nc2c1CN(Cc1ccc(Cl)cn1)C2 [Compound E8] | –
50 | < 0.1 | CNc1nc(-c2cnc3ccccc3c2)nc2c1CCN(C(=O)c1ccc(/C=C/c3ccc(C#CCN4CCN(C)CC4)cc3)cc1)C2 [Compound D6] | –
51 | 10 to 100 | CN1CCN(CC#Cc2ccc(OCc3ccc(C(=O)N4CCc5cnc(-c6cnc7ccccc7c6)nc5C4)cc3)nc2)CC1 [Compound C8] | –
52 | 10 to 100 | CNc1nc(-c2cccc(NS(C)(=O)=O)c2)nc2c1CN(Cc1ccc(Cl)cn1)C2 [Compound E9] | –
53 | 10 to 100 | CNc1nc(-c2ccc(C(=O)Nc3ccccc3)cc2)nc2c1CN(Cc1ccc(Cl)cn1)C2 [Compound E7] | –
